In patent US12077537B2 (Gilead Sciences, Inc., priority 2020, dated 2024):

What follows are compounds tested on HIV-IIIb (assay: Antiviral assay in MT4 cells). Details: Human immunodeficiency virus 1, MT4, 120 h; MT-4 cells mixed with HIV-IIIb at m.o.i. 0.003; 5 days at 37° C.; CellTiter-Glo luminescence; 50% decrease in signal, a measure of HIV-1 replication.
Assay type: cell-based
Summary of the method: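 MT-4 cells were infected with HIV-IIIb at m.o.i. 0.003 for 1 hour, then added to 3-fold serially diluted compound (10 concentrations, quadruplicate) in medium with 10% FBS. After 5 days at 37° C, cell viability was read by CellTiter-Glo chemiluminescence.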

Compound	EC50
Cn1nc(N)c2cccc(-c3cc4sc(N5CC(C)(O)C5)nc4nc3[C@H](Cc3cc(F)cc(F)c3)NC(=O)Cn3nc(C(F)F)c4c3C(F)(F)[C@@H]3C[C@H]43)c21 [Compound 59, N—((S)-1-(6-(3-amino-1-methyl-1H-indazol-7-yl)-2-(3-hydroxy-3-methylazetidin-1-yl)thiazolo[4,5-b]pyridin-5-yl)-2-(3,5-difluorophenyl)ethyl)-2-((3bS,4aR)-3-(difluoromethyl)-5,5-difluoro-3b,4,4a,5-tetrahydro-1H-cyclopropa[3,4]cyclopenta[1,2-c]pyrazol-1-yl)acetamide]	16.3 nM
CCS(=O)(=O)Nc1nn(C)c2c(-c3cc4sc(NCC(C)(C)O)nc4nc3[C@H](Cc3cc(F)cc(F)c3)NC(=O)Cn3nc(C(F)F)c4c3C(F)(F)[C@@H]3C[C@H]43)cccc12 [Compound 61, 2-((3bS,4aR)-3-(difluoromethyl)-5,5-difluoro-3b,4,4a,5-tetrahydro-1H-cyclopropa[3,4]cyclopenta[1,2-c]pyrazol-1-yl)-N—((S)-2-(3,5-difluorophenyl)-1-(6-(3-(ethylsulfonamido)-1-methyl-1H-indazol-7-yl)-2-((2-hydroxy-2-methylpropyl)amino)thiazolo[4,5-b]pyridin-5-yl)ethyl)acetamide]	10 nM
Cn1nc(NS(=O)(=O)C2CC2)c2cccc(-c3cc4sc(NCC(C)(C)O)nc4nc3[C@H](Cc3cc(F)cc(F)c3)NC(=O)Cn3nc(C(F)F)c4c3C(F)(F)[C@@H]3C[C@H]43)c21 [Compound 62, N—((S)-1-(6-(3-(cyclopropanesulfonamido)-1-methyl-1H-indazol-7-yl)-2-((2-hydroxy-2-methylpropyl)amino)thiazolo[4,5-b]pyridin-5-yl)-2-(3,5-difluorophenyl)ethyl)-2-((3bS,4aR)-3-(difluoromethyl)-5,5-difluoro-3b,4,4a,5-tetrahydro-1H-cyclopropa[3,4]cyclopenta[1,2-c]pyrazol-1-yl)acetamide]	7.9 nM
Cn1nc(NS(C)(=O)=O)c2cccc(-c3cc4sc(C#N)nc4nc3C(Cc3cc(F)cc(F)c3)NC(=O)Cn3nc(C(F)(F)F)c4c3C(F)(F)[C@@H]3C[C@H]43)c21 (stereo partly drawn) [Compound 131, N-(1-(2-cyano-6-(1-methyl-3-(methylsulfonamido)-1H-indazol-7-yl)thiazolo[4,5-b]pyridin-5-yl)-2-(3,5-difluorophenyl)ethyl)-2-((3bS,4aR)-5,5-difluoro-3-(trifluoromethyl)-3b,4,4a,5-tetrahydro-1H-cyclopropa[3,4]cyclopenta[1,2-c]pyrazol-1-yl)acetamide]	28.1 nM
Cn1nc(NS(C)(=O)=O)c2c(Cl)ccc(-c3cc4[nH]c(=O)ccc4nc3C(Cc3cc(F)cc(F)c3)NC(=O)Cn3nc(C(F)F)c4c3C(F)(F)[C@@H]3C[C@H]43)c21 (stereo partly drawn) [Compound 135, N-(1-(3-(4-chloro-1-methyl-3-(methylsulfonamido)-1H-indazol-7-yl)-6-oxo-5,6-dihydro-1,5-naphthyridin-2-yl)-2-(3,5-difluorophenyl)ethyl)-2-((3bS,4aR)-3-(difluoromethyl)-5,5-difluoro-3b,4,4a,5-tetrahydro-1H-cyclopropa[3,4]cyclopenta[1,2-c]pyrazol-1-yl)acetamide]	18 nM
Cn1nc(NS(C)(=O)=O)c2c(Cl)ccc(-c3cc4c(nc3[C@H](Cc3cc(F)cc(F)c3)NC(=O)Cn3nc(C(F)F)c5c3C(F)(F)[C@@H]3C[C@H]53)CCC(=O)N4)c21 [Compound 136, N—((S)-1-(3-(4-chloro-1-methyl-3-(methylsulfonamido)-1H-indazol-7-yl)-6-oxo-5,6,7,8-tetrahydro-1,5-naphthyridin-2-yl)-2-(3,5-difluorophenyl)ethyl)-2-((3bS,4aR)-3-(difluoromethyl)-5,5-difluoro-3b,4,4a,5-tetrahydro-1H-cyclopropa[3,4]cyclopenta[1,2-c]pyrazol-1-yl)acetamide]	4.3 nM
CC(C)(C)OC(=O)N1CCC[C@H]1c1nc(-c2ccc(C#Cc3nc4nc([C@H](Cc5cc(F)cc(F)c5)NC(=O)Cn5nc(C(F)F)c6c5C(F)(F)CCC6(F)F)c(-c5ccc(F)c(C(N)=O)c5)cc4s3)cc2)c[nH]1 [Compound 137, tert-butyl (S)-2-(4-(4-((6-(3-carbamoyl-4-fluorophenyl)-5-((S)-1-(2-(3-(difluoromethyl)-4,4,7,7-tetrafluoro-4,5,6,7-tetrahydro-1H-indazol-1-yl)acetamido)-2-(3,5-difluorophenyl)ethyl)thiazolo[4,5-b]pyridin-2-yl)ethynyl)phenyl)-1H-imidazol-2-yl)pyrrolidine-1-carboxylate]	409 nM
NC(=O)c1cc(-c2cc3sc(C#Cc4ccc(-c5c[nH]c([C@@H]6CCCN6)n5)cc4)nc3nc2[C@H](Cc2cc(F)cc(F)c2)NC(=O)Cn2nc(C(F)F)c3c2C(F)(F)CCC3(F)F)ccc1F [Compound 138, 5-(5-((S)-1-(2-(3-(difluoromethyl)-4,4,7,7-tetrafluoro-4,5,6,7-tetrahydro-1H-indazol-1-yl)acetamido)-2-(3,5-difluorophenyl)ethyl)-2-((4-(2-((S)-pyrrolidin-2-yl)-1H-imidazol-4-yl)phenyl)ethynyl)thiazolo[4,5-b]pyridin-6-yl)-2-fluorobenzamide]	112 nM

The remaining compounds from weak to strong by EC50, led by results:

EC50	Compound
60 nM	Cn1nc(N)c2cccc(-c3cc4sc(NCC(C)(C)O)nc4nc3[C@H](Cc3cc(F)cc(F)c3)NC(=O)Cn3nc(C(F)F)c4c3C(F)(F)CCC4(F)F)c21 [Compound 60, (S)—N-(1-(6-(3-amino-1-methyl-1H-indazol-7-yl)-2-((2-hydroxy-2-methylpropyl)amino)thiazolo[4,5-b]pyridin-5-yl)-2-(3,5-difluorophenyl)ethyl)-2-(3-(difluoromethyl)-4,4,7,7-tetrafluoro-4,5,6,7-tetrahydro-1H-indazol-1-yl)acetamide]
43.7 nM	Cn1nc(NS(C)(=O)=O)c2cccc(-c3cc4sc(-c5cn[nH]c5)nc4nc3C(Cc3cc(F)cc(F)c3)NC(=O)Cn3nc(C(F)(F)F)c4c3C(F)(F)[C@@H]3C[C@H]43)c21 (stereo partly drawn) [Compound 132, 2-((3bS,4aR)-5,5-difluoro-3-(trifluoromethyl)-3b,4,4a,5-tetrahydro-1H-cyclopropa[3,4]cyclopenta[1,2-c]pyrazol-1-yl)-N-(2-(3,5-difluorophenyl)-1-(6-(1-methyl-3-(methylsulfonamido)-1H-indazol-7-yl)-2-(1H-pyrazol-4-yl)thiazolo[4,5-b]pyridin-5-yl)ethyl)acetamide]
43.3 nM	Cn1nc(NS(C)(=O)=O)c2cccc(-c3cc4sc(-c5c[nH]cn5)nc4nc3C(Cc3cc(F)cc(F)c3)NC(=O)Cn3nc(C(F)(F)F)c4c3C(F)(F)[C@@H]3C[C@H]43)c21 (stereo partly drawn) [Compound 133, N-(1-(2-(1H-imidazol-4-yl)-6-(1-methyl-3-(methylsulfonamido)-1H-indazol-7-yl)thiazolo[4,5-b]pyridin-5-yl)-2-(3,5-difluorophenyl)ethyl)-2-((3bS,4aR)-5,5-difluoro-3-(trifluoromethyl)-3b,4,4a,5-tetrahydro-1H-cyclopropa[3,4]cyclopenta[1,2-c]pyrazol-1-yl)acetamide]
16.9 nM	Cn1nc(NS(C)(=O)=O)c2cccc(-c3cc4scnc4nc3C(Cc3cc(F)cc(F)c3)NC(=O)Cn3nc(C(F)(F)F)c4c3C(F)(F)[C@@H]3C[C@H]43)c21 (stereo partly drawn) [Compound 129, 2-((3bS,4aR)-5,5-difluoro-3-(trifluoromethyl)-3b,4,4a,5-tetrahydro-1H-cyclopropa[3,4]cyclopenta[1,2-c]pyrazol-1-yl)-N-(2-(3,5-difluorophenyl)-1-(6-(1-methyl-3-(methylsulfonamido)-1H-indazol-7-yl)thiazolo[4,5-b]pyridin-5-yl)ethyl)acetamide]
10.2 nM	Cn1cnc(-c2nc3nc(C(Cc4cc(F)cc(F)c4)NC(=O)Cn4nc(C(F)(F)F)c5c4C(F)(F)[C@@H]4C[C@H]54)c(-c4cccc5c(NS(C)(=O)=O)nn(C)c45)cc3s2)c1 (stereo partly drawn) [Compound 134, 2-((3bS,4aR)-5,5-difluoro-3-(trifluoromethyl)-3b,4,4a,5-tetrahydro-1H-cyclopropa[3,4]cyclopenta[1,2-c]pyrazol-1-yl)-N-(2-(3,5-difluorophenyl)-1-(2-(1-methyl-1H-imidazol-4-yl)-6-(1-methyl-3-(methylsulfonamido)-1H-indazol-7-yl)thiazolo[4,5-b]pyridin-5-yl)ethyl)acetamide]
9.2 nM	CC(C)N1CCN(c2nc3nc([C@H](Cc4cc(F)cc(F)c4)NC(=O)Cn4nc(C(F)(F)F)c5c4C(F)(F)[C@@H]4C[C@H]54)c(-c4cccc5c(NS(C)(=O)=O)nn(C)c45)cc3s2)CC1 [Compound 64, 2-((3bS,4aR)-5,5-difluoro-3-(trifluoromethyl)-3b,4,4a,5-tetrahydro-1H-cyclopropa[3,4]cyclopenta[1,2-c]pyrazol-1-yl)-N—((S)-2-(3,5-difluorophenyl)-1-(2-(4-isopropylpiperazin-1-yl)-6-(1-methyl-3-(methylsulfonamido)-1H-indazol-7-yl)thiazolo[4,5-b]pyridin-5-yl)ethyl)acetamide]
7.2 nM	CCS(=O)(=O)Nc1nn(C)c2c(-c3cc4sc(NCC(C)(C)O)nc4nc3[C@H](Cc3cc(F)cc(F)c3)NC(=O)Cn3nc(C(F)(F)F)c4c3C(F)(F)[C@@H]3C[C@H]43)cccc12 [Compound 63, 2-((3bS,4aR)-5,5-difluoro-3-(trifluoromethyl)-3b,4,4a,5-tetrahydro-1H-cyclopropa[3,4]cyclopenta[1,2-c]pyrazol-1-yl)-N—((S)-2-(3,5-difluorophenyl)-1-(6-(3-(ethylsulfonamido)-1-methyl-1H-indazol-7-yl)-2-((2-hydroxy-2-methylpropyl)amino)thiazolo[4,5-b]pyridin-5-yl)ethyl)acetamide]
6 nM	Cc1nc2nc(C(Cc3cc(F)cc(F)c3)NC(=O)Cn3nc(C(F)(F)F)c4c3C(F)(F)[C@@H]3C[C@H]43)c(-c3cccc4c(NS(C)(=O)=O)nn(C)c34)cc2s1 (stereo partly drawn) [Compound 130, 2-((3bS,4aR)-5,5-difluoro-3-(trifluoromethyl)-3b,4,4a,5-tetrahydro-1H-cyclopropa[3,4]cyclopenta[1,2-c]pyrazol-1-yl)-N-(2-(3,5-difluorophenyl)-1-(2-methyl-6-(1-methyl-3-(methylsulfonamido)-1H-indazol-7-yl)thiazolo[4,5-b]pyridin-5-yl)ethyl)acetamide]
